Assay results published in ChEMBL document CHEMBL4828727, “Antibacterial and antitumoral properties of 1,2,3-triazolo fused triterpenes and their mechanism of inhibiting the proliferation of HL-60 cells” (Eur J Med Chem, 2021).
In brackets after ≈: the same amount, converted by molar mass. Activity calls are given as the source filed them. The calls are words filed in the database; no cut-off is given here.

Columns and labels:
[1] = system: Listeria innocua; assay: Antibacterial activity against Listeria innocua LMG11387 assessed as growth inhibition after 20 hrs by broth microdilution method; format: functional
[2] = system: Salmonella enterica subsp. enterica; assay: Antibacterial activity against Salmonella enterica subsp.enterica ATCC13076 assessed as growth inhibition after 20 hrs by broth microdilution method; format: functional
[3] = system: Staphylococcus aureus; assay: Antibacterial activity against Staphylococcus aureus ATCC65385 assessed as growth inhibition after 20 hrs by broth microdilution method; format: functional
[4] = system: K562; assay: cells; format: functional, cell-based; details: Homo sapiens, K562, 72 h
Description: Antiproliferative activity against human K562 cells assessed as inhibition of cell viability measured after 72 hrs by real-time IncuCyte proliferation analysis

[5] = Antiproliferative activity against human DND41 cells assessed as inhibition of cell viability measured after 72 hrs by real-time IncuCyte proliferation analysis; format: functional, cell-based; details: DND41, 72 h
[6] = system: Escherichia coli; assay: Antibacterial activity against Escherichia coli ATCC47076 assessed as growth inhibition after 20 hrs by broth microdilution method; format: functional
[7] = system: Z-138; assay: cells; format: functional, cell-based; details: Homo sapiens, Z-138, 72 h
Description: Antiproliferative activity against human Z138 cells assessed as inhibition of cell viability measured after 72 hrs by real-time IncuCyte proliferation analysis

[8] = Antiproliferative activity against human HAP1 cells assessed as inhibition of cell viability measured after 72 hrs by colorimetric MTS viability assay; format: functional, cell-based; details: HAP1, 72 h
[9] = system: CAPAN-1; assay: cells; format: functional, cell-based; details: Homo sapiens, CAPAN-1, 72 h
Description: Antiproliferative activity against human CAPAN-1 cells assessed as inhibition of cell viability measured after 72 hrs by colorimetric MTS viability assay

[10] = system: NCI-H460; assay: cells; format: functional, cell-based; details: Homo sapiens, NCI-H460, 72 h
Description: Antiproliferative activity against human NCI-H460 cells assessed as inhibition of cell viability measured after 72 hrs by colorimetric MTS viability assay

[11] = system: LN-229; assay: Antiproliferative activity against human LN-229 cells assessed as inhibition of cell viability measured after 72 hrs by colorimetric MTS viability assay; format: functional, cell-based; details: LN-229, 72 h
[12] = system: HL-60; assay: cells; format: functional, cell-based; details: Homo sapiens, HL-60, 72 h
Description: Antiproliferative activity against human HL-60 cells assessed as inhibition of cell viability measured after 72 hrs by real-time IncuCyte proliferation analysis

[13] = system: HCT-116; assay: Antiproliferative activity against human HCT-116 cells assessed as inhibition of cell viability measured after 72 hrs by colorimetric MTS viability assay; format: functional, cell-based; details: HCT-116, 72 h
[14] = system: MV4-11; assay: cells; format: functional, cell-based; details: Homo sapiens, MV4-11, 72 h
Description: Cytotoxicity against human MV4-11cells assessed as inhibition of cell viability measured after 72 hrs by real-time IncuCyte proliferation analysis

[15] = system: Jurkat; assay: cells; format: functional, cell-based; details: Homo sapiens, 72 h
Description: Cytotoxicity against human Jurkat cells assessed as inhibition of cell viability measured after 72 hrs by real-time IncuCyte proliferation analysis

[16] = system: Rec1; assay: cells; format: functional, cell-based; details: Homo sapiens, Rec1, 72 h
Description: Cytotoxicity against human REC1 cells assessed as inhibition of cell viability measured after 72 hrs by real-time IncuCyte proliferation analysis

Structure (SMILES)	MIC50 [1]	MIC50 [2]	MIC50 [3]	IC50 [4]	IC50 [5]	MIC50 [6]	IC50 [7]	IC50 [8]	IC50 [9]	IC50 [10]	IC50 [11]	IC50 [12]	IC50 [13]	IC50 [14]	IC50 [15]	IC50 [16]
O=C(O)c1cn(C2CC2)c2cc(N3CCNCC3)c(F)cc2c1=O [CIPROFLOXACIN]	138 µg/mL (≈ 416 µM)	0.37 µg/mL (≈ 1.12 µM)	3.41 µg/mL (≈ 10.3 µM)													
C=C(C)[C@@H]1CC[C@]2(CO)CC[C@]3(C)[C@H](CC[C@@H]4[C@@]5(C)Cc6nnn(Cc7ccc8[nH]ccc8c7)c6C(C)(C)[C@@H]5CC[C@]43C)[C@@H]12	187 µg/mL (≈ 315 µM)	62 µg/mL (≈ 104 µM)	345 µg/mL (≈ 580 µM)	> 100 µM	> 100 µM	96.3 µg/mL (≈ 162 µM)	> 100 µM	> 100 µM	> 100 µM	> 100 µM	> 100 µM	> 100 µM	> 100 µM			
CC1(C)CC[C@]2(C(=O)O)CC[C@]3(C)C(=CC[C@@H]4[C@@]5(C)Cc6nnn(CCc7c[nH]c8ccccc78)c6C(C)(C)[C@@H]5CC[C@]43C)[C@@H]2C1	255 µg/mL (≈ 409 µM)	inactive	274 µg/mL (≈ 439 µM)	52.1 µM	9.9 µM	387 µg/mL (≈ 622 µM)	11.6 µM	> 7.9 µM	9.6 µM	7.6 µM	55.1 µM	1.5 µM	11.1 µM	15.8 µM	4.1 µM	2.1 µM
C[C@H]1[C@H](C)CC[C@]2(C(=O)O)CC[C@]3(C)C(=CC[C@@H]4[C@@]5(C)Cc6nnn(CCc7c[nH]c8ccccc78)c6C(C)(C)[C@@H]5CC[C@]43C)[C@H]12	118 µg/mL (≈ 189 µM)	inactive	132 µg/mL (≈ 212 µM)	65.9 µM	9 µM	inactive	12.2 µM	6.3 µM	4.6 µM	8.8 µM	35.1 µM	5.5 µM	10.8 µM	9.9 µM	3.8 µM	2.5 µM
C[C@H]1[C@H](C)CC[C@]2(C(=O)O)CC[C@]3(C)C(=CC[C@@H]4[C@@]5(C)Cc6nnn(Cc7cccc8[nH]ccc78)c6C(C)(C)[C@@H]5CC[C@]43C)[C@H]12	51.3 µg/mL (≈ 84.2 µM)	inactive	23.1 µg/mL (≈ 38 µM)	> 100 µM	10.1 µM	409 µg/mL (≈ 672 µM)	10.1 µM	8.8 µM	3.6 µM	9.2 µM	63.5 µM	2.7 µM	15.6 µM	14.1 µM	4.1 µM	2.8 µM
CC1(C)CC[C@]2(C(=O)O)CC[C@]3(C)C(=CC[C@@H]4[C@@]5(C)Cc6nnn(Cc7ccc(Cl)cc7)c6C(C)(C)[C@@H]5CC[C@]43C)[C@@H]2C1	367 µg/mL (≈ 608 µM)	25.2 µg/mL (≈ 41.8 µM)	180 µg/mL (≈ 298 µM)	> 100 µM	64.3 µM	34.3 µg/mL (≈ 56.7 µM)	61.5 µM	> 100 µM	25.8 µM	> 100 µM	67.1 µM	56 µM	63.8 µM			
C=C(C)[C@@H]1CC[C@]2(CO)CC[C@]3(C)[C@H](CC[C@@H]4[C@@]5(C)Cc6nnn(Cc7ccc(F)cc7)c6C(C)(C)[C@@H]5CC[C@]43C)[C@@H]12	inactive	48.1 µg/mL (≈ 83.8 µM)	inactive	> 100 µM	> 100 µM	56.7 µg/mL (≈ 98.8 µM)	> 100 µM	10.3 µM	> 100 µM	> 100 µM	> 100 µM	> 100 µM	> 100 µM			
C=C(C)[C@@H]1CC[C@]2(CO)CC[C@]3(C)[C@H](CC[C@@H]4[C@@]5(C)Cc6nnn(Cc7ccc8cc[nH]c8c7)c6C(C)(C)[C@@H]5CC[C@]43C)[C@@H]12	195 µg/mL (≈ 328 µM)	43 µg/mL (≈ 72.3 µM)	233 µg/mL (≈ 392 µM)	> 100 µM	> 100 µM	84.7 µg/mL (≈ 142 µM)	> 100 µM	> 100 µM	> 100 µM	> 100 µM	> 100 µM	> 100 µM	> 100 µM			
